The source of these data is patent EP4803159A2, “CONJUGATE OF SALICYLIC ACID AND PEPTIDE” (Caregen Co., Ltd., priority 2017, dated 2018).

For data set [1], the system named is HaCaT keratinocyte cell line. Nature of the data set: Keratinocyte growth, sulforhodamine B (SRB) colorimetric assay. It counts as cell-based. The conditions noted are these: 50 µM, 72 hours, serum-free medium, SRB absorbance at 560 nm, FIG. 2B. How it is done: To analyze growth factor-like efficacy and inhibitory efficacy of the compounds synthesized in Example <1-2>, a sulforhodamine B (SRB Sigma) colorimetric assay was performed using a HaCaT keratinocyte cell line (Korean Cell Line Bank) in accordance with a method of Rizzino, et al. (Cancer Res. 48:4266(1988))
HaCaT keratinocyte cell line was seeded in a 96-well plate at a density of 3,000 cells per well, and then cultured in Dulbecco's modified Eagle's medium (DMEM, Gibco, USA) containing 10% fetal bovine serum (FBS, Sigma) for 24 hours under conditions of 37°C and 5% CO2. The cultured cell line was detached from the bottom of the culture plate using a 1% trypsin solution, and only cell precipitate was collected by centrifugation. The cell precipitate was suspended in DMEM without FBS, and then cultured for 24 hours under conditions of 37°C and 5% CO2. 24 hours later, the medium was replaced by the same medium from which serum was completely removed. A blank sample in which the cell precipitate was dissolved sterile in 10% DMSO was prepared for standardization. Each of the compound 1 to the compound 4 (50 µM) of the present disclosure, salicylic acid (50 µM), and EGF (100 nM) as a positive control were treated. Incubation was carried out under the same conditions as above for 72 hours. […] Absorbance at UV 560 nm was measured to determine cell viability.

For data set [2], the system named is TNF-a, IL-6, IL-1b, and COX-2. Nature of the data set: Anti-inflammatory effect, Propionibacterium acnes-induced inflammatory cytokine mRNA expression in keratinocytes (RT-PCR). The data set is classed as cell-based. The note with it: keratinocyte, 50 µg/ml Propionibacterium acnes, 50 µM compound, 24 hours; FIG. 8. How it is done:
Anti-inflammatory effects of the compounds of the present disclosure were examined using Propionibacterium acnes. To this end, keratinocyte was seeded in a 6-well plate at a density of 300,000 cells per well, and then incubated in a DMEM culture medium (Gibco, USA) containing 10% FBS for 24 hours under conditions of 37°C and 5% CO2. After replacing the medium by a fresh medium, the cells were treated with 50 µg/ml of Propionibacterium acnes, and then the treated Propionibacterium acnes was treated with each 50 µM of the compound 1 and the compound 3 of the present disclosure and salicylic acid used as the positive control, followed by incubation for 24 hours under the same conditions as above. RNA was isolated from the cells, and cDNA was synthesized using a cDNA synthesis kit (Intron, Korea). PCR premix (Intron, Korea) and primers for each of TNF-a, IL-6, IL-1b, and COX-2 in Table 3 below were used to perform PCR. mRNA levels of TNF-a, IL-6, IL-1b and COX-2 were determined by 5% agarose gel electrophoresis.

The conditions of data set [3]: distilled water, concentration of 10 mg/ml; FIG. 1.

`O=C(O)c1ccccc1O` [salicylic acid, 2-hydroxybenzoic acid]: in data set [1], the growth of keratinocytes entry was “inhibited growth of keratinocytes due to toxicity”. Moreover, in data set [2], the “expression of inflammatory cytokines induced by Propionibacterium acnes” value is “hardly inhibited expression”. Further, the solubility in water entry in data set [3] was “hardly dissolved in water”.
